# Assay results from patent publication US20090068290A1, “BIFEPRUNOX DOSES FOR TREATING SCHIZOPHRENIA” (priority 2006, published 2009).
# Experiments:
# [1] = system: adult subjects with schizophrenia; assay: BPRS psychosis cluster score, Clinical Study Three; assay type: in vivo, human; settings: for Change from Baseline in BPRS Psychosis Cluster Score, Mean (SD) / Change from Baseline in BPRS Psychosis Cluster Score, Median / Change from Baseline in BPRS Psychosis Cluster Score, Trt Effect (bifeprunox—placebo) / mean change (SD) from Baseline to Endpoint in BPRS psychosis cluster score: LOCF; for Change from Baseline in BPRS Psychosis Cluster Score, Mean (SD) / Change from Baseline in BPRS Psychosis Cluster Score, Median / Change from Baseline in BPRS Psychosis Cluster Score, Trt Effect (bifeprunox—placebo): ITT population; for BPRS psychosis cluster score, treatment effect (bifeprunox—placebo): Endpoint LOCF; for mean change (SD) from Baseline to Endpoint in BPRS psychosis cluster score: ITT
# From the text: SECONDARY OBJECTIVES To assess the efficacy of bifeprunox in treating schizophrenia using the Positive Symptom sub-scale score of the PANSS, the Negative Symptom sub-scale score of the PANSS, the General Psychopathology sub-scale of the PANSS, Brief Psychiatric Rating Scale (BPRS) total score derived from the PANSS, BPRS psychosis score derived from the PANSS, the Clinical Global Impression Severity of Illness score (CGI-S), the Clinical Global Impression Improvement score (CGI-I), CGI-I responder rate, PANSS responder rate based on the PANSS total score, Calgary Depression Scale for Schizophrenia (CDSS), and Subject Satisfaction rating.
# There were four treatment arms in this study, approximately 144 subjects per arm. […] After completing the Single-Blind Placebo Lead-in Period of at least three days, bifeprunox-treated subjects were titrated from 0.25 mg up to 20 mg/day or 30 mg/day according to a standardized titration scheme over a seven- or eight-day period, respectively. When the assigned dose was reached, subjects were maintained at that dose for the remainder of the six week treatment period. […] Subjects were hospitalized (if not already inpatients) after eligibility for study entry was verified, starting from the Screening Visit until at least 10 days after Baseline. Subjects could be hospitalized longer than 10 days if considered medically necessary by the Investigator. Rating scale assessments for efficacy and abnormal movement disorders were done weekly except for Week 5. […] Subject satisfaction with study medication was assessed at Week 6.
# [2] = system: adult subjects with schizophrenia; assay: BPRS total score, Clinical Study Two; assay type: in vivo, human; settings: for Change from Baseline in BPRS Total Score, Mean (SD) / Change from Baseline in BPRS Total Score, Median / Change from Baseline in BPRS Total Score, Trt Effect (bifeprunox—placebo) / mean change (SD) from Baseline to Endpoint in BPRS total score: LOCF; for Change from Baseline in BPRS Total Score, Mean (SD) / Change from Baseline in BPRS Total Score, Median / Change from Baseline in BPRS Total Score, Trt Effect (bifeprunox—placebo): ITT population; for BPRS total score, treatment effect (bifeprunox—placebo): Endpoint LOCF; for mean change (SD) from Baseline to Endpoint in BPRS total score: ITT
# Method: Rating scale assessments were performed weekly, except for week 5, to measure the change from baseline to endpoint of the PANSS total score. Other assessments included: PANSS positive symptom subscale score, PANSS negative symptom subscale score, PANSS general pschopathology subscale score, BPRS total score, BPRS psychosis score, the CGI-S score, the CGI-I score, responder rates based on the PANSS total score, and the Calgary Depression Scale for Schizophrenia (CDSS). […]
# Subjects who completed this study had the option to continue in the long-term. […] Blood samples were also obtained at Screening/Baseline, Week 3, and Week 6 for clinical laboratory assessments.
# [3] = system: adult subjects with schizophrenia; assay: Adverse events (TEAE, SAE, special interest, discontinuation, EPS-related TEAE), Clinical Study Three
# Method: There were four treatment arms in this study, approximately 144 subjects per arm. […] After completing the Single-Blind Placebo Lead-in Period of at least three days, bifeprunox-treated subjects were titrated from 0.25 mg up to 20 mg/day or 30 mg/day according to a standardized titration scheme over a seven- or eight-day period, respectively. When the assigned dose was reached, subjects were maintained at that dose for the remainder of the six week treatment period. […] Subjects were hospitalized (if not already inpatients) after eligibility for study entry was verified, starting from the Screening Visit until at least 10 days after Baseline. Subjects could be hospitalized longer than 10 days if considered medically necessary by the Investigator. Rating scale assessments for efficacy and abnormal movement disorders were done weekly except for Week 5. Safety assessments were performed at Screening, during treatment and at the end of the study. Subject satisfaction with study medication was assessed at Week 6. Samples of whole blood were obtained at Weeks 2, 4, and 6 for determination of bifeprunox in plasma.
# EPS were assessed using treatment-emergent adverse events such as akathisia, dyskinesia, parkinsoniam, etc. and/or formal rating scales such as SAS, BAS, and/or AIMS.
# [4] = Bifeprunox 20 mg, Week 6/Endpoint
# [5] = Bifeprunox 30 mg, Week 6/Endpoint
# [6] = Bifeprunox 40 mg, Week 6/Endpoint
smiles,measurement,setting,value
"O=c1[nH]c2cccc(N3CCN(Cc4cccc(-c5ccccc5)c4)CC3)c2o1 [Bifeprunox, 7-[4-([1,1′-biphenyl]-3-ylmethyl)-1-piperazinyl]-2(3H)-benzoxazolone]","Change from Baseline in BPRS Psychosis Cluster Score, Mean (SD)","[1]; Bifeprunox 20 mg, Week 1",−1.4 (2.3)
same,"Change from Baseline in BPRS Psychosis Cluster Score, Median","[1]; Bifeprunox 20 mg, Week 1",−1
same,"Change from Baseline in BPRS Psychosis Cluster Score, Mean (SD)","[1]; Bifeprunox 20 mg, Week 2",−2.1 (2.9)
same,"Change from Baseline in BPRS Psychosis Cluster Score, Median","[1]; Bifeprunox 20 mg, Week 2",−2
same,"Change from Baseline in BPRS Psychosis Cluster Score, Mean (SD)","[1]; Bifeprunox 20 mg, Week 3",−2.6 (3.4)
same,"Change from Baseline in BPRS Psychosis Cluster Score, Median","[1]; Bifeprunox 20 mg, Week 3",−3
same,"Change from Baseline in BPRS Psychosis Cluster Score, Median","[1]; Bifeprunox 20 mg, Week 4",−3
same,"Change from Baseline in BPRS Psychosis Cluster Score, Mean (SD)",[1]; [4],−3.1 (3.9)
same,"Change from Baseline in BPRS Psychosis Cluster Score, Median",[1]; [4],−3
same,"Change from Baseline in BPRS Psychosis Cluster Score, Trt Effect (bifeprunox—placebo)",[1]; [4],−0.6
same,"Change from Baseline in BPRS Psychosis Cluster Score, Mean (SD)","[1]; Bifeprunox 30 mg, Week 1",−1.7 (2.5)
same,"Change from Baseline in BPRS Psychosis Cluster Score, Median","[1]; Bifeprunox 30 mg, Week 1",−2
same,"Change from Baseline in BPRS Psychosis Cluster Score, Mean (SD)","[1]; Bifeprunox 30 mg, Week 2",−2.3 (3.3)
same,"Change from Baseline in BPRS Psychosis Cluster Score, Median","[1]; Bifeprunox 30 mg, Week 2",−2
same,"Change from Baseline in BPRS Psychosis Cluster Score, Mean (SD)","[1]; Bifeprunox 30 mg, Week 3",−2.7 (3.8)
same,"Change from Baseline in BPRS Psychosis Cluster Score, Median","[1]; Bifeprunox 30 mg, Week 3",−3
same,"Change from Baseline in BPRS Psychosis Cluster Score, Mean (SD)","[1]; Bifeprunox 30 mg, Week 4",−3.0 (4.0)
same,"Change from Baseline in BPRS Psychosis Cluster Score, Median","[1]; Bifeprunox 30 mg, Week 4",−3
same,"Change from Baseline in BPRS Psychosis Cluster Score, Mean (SD)",[1]; [5],−3.2 (4.4)
same,"Change from Baseline in BPRS Psychosis Cluster Score, Median",[1]; [5],−3
same,"Change from Baseline in BPRS Psychosis Cluster Score, Trt Effect (bifeprunox—placebo)",[1]; [5],−0.5
same,"BPRS psychosis cluster score, treatment effect (bifeprunox—placebo)",[1]; bifeprunox 20 mg,−0.6
same,mean change (SD) from Baseline to Endpoint in BPRS psychosis cluster score,[1]; bifeprunox 20 mg,−3.1 (3-9)
same,"BPRS psychosis cluster score, treatment effect (bifeprunox—placebo)",[1]; bifeprunox 30 mg,−0.5
same,mean change (SD) from Baseline to Endpoint in BPRS psychosis cluster score,[1]; bifeprunox 30 mg,−3.2 (4.4)
same,"Change from Baseline in BPRS Total Score, Mean (SD)","[2]; Bifeprunox 30 mg, Week 1",−3.8 (7.0)
same,"Change from Baseline in BPRS Total Score, Median","[2]; Bifeprunox 30 mg, Week 1",−3
same,"Change from Baseline in BPRS Total Score, Mean (SD)","[2]; Bifeprunox 30 mg, Week 2",−7.0 (9.5)
same,"Change from Baseline in BPRS Total Score, Median","[2]; Bifeprunox 30 mg, Week 2",−6
same,"Change from Baseline in BPRS Total Score, Mean (SD)","[2]; Bifeprunox 30 mg, Week 3",−7.93 (10.7)
same,"Change from Baseline in BPRS Total Score, Median","[2]; Bifeprunox 30 mg, Week 3",−6
same,"Change from Baseline in BPRS Total Score, Mean (SD)","[2]; Bifeprunox 30 mg, Week 4",−8.2 (11.5)
same,"Change from Baseline in BPRS Total Score, Median","[2]; Bifeprunox 30 mg, Week 4",−7
same,"Change from Baseline in BPRS Total Score, Mean (SD)",[2]; [5],−8.1 (12.3)
same,"Change from Baseline in BPRS Total Score, Median",[2]; [5],−7
same,"Change from Baseline in BPRS Total Score, Trt Effect (bifeprunox—placebo)",[2]; [5],−3.2
same,"Change from Baseline in BPRS Total Score, Mean (SD)","[2]; Bifeprunox 40 mg, Week 1",−4.3 (7.1)
same,"Change from Baseline in BPRS Total Score, Median","[2]; Bifeprunox 40 mg, Week 1",−4
same,"Change from Baseline in BPRS Total Score, Mean (SD)","[2]; Bifeprunox 40 mg, Week 2",−5.5 (9.3)
same,"Change from Baseline in BPRS Total Score, Median","[2]; Bifeprunox 40 mg, Week 2",−6
same,"Change from Baseline in BPRS Total Score, Mean (SD)","[2]; Bifeprunox 40 mg, Week 3",−6.3 (10.3)
same,"Change from Baseline in BPRS Total Score, Median","[2]; Bifeprunox 40 mg, Week 3",−6
same,"Change from Baseline in BPRS Total Score, Mean (SD)","[2]; Bifeprunox 40 mg, Week 4",−5.7 (10.9)
same,"Change from Baseline in BPRS Total Score, Median","[2]; Bifeprunox 40 mg, Week 4",−4
same,"Change from Baseline in BPRS Total Score, Mean (SD)",[2]; [6],−6.5 (11.7)
same,"Change from Baseline in BPRS Total Score, Median",[2]; [6],−5
same,"Change from Baseline in BPRS Total Score, Trt Effect (bifeprunox—placebo)",[2]; [6],−1.9
same,"BPRS total score, treatment effect (bifeprunox—placebo)",[2]; bifeprunox 30 mg,−3.2
same,mean change (SD) from Baseline to Endpoint in BPRS total score,[2]; bifeprunox 30 mg,−8.1 (12.3)
same,"BPRS total score, treatment effect (bifeprunox—placebo)",[2]; bifeprunox 40 mg,−1.9
same,mean change (SD) from Baseline to Endpoint in BPRS total score,[2]; bifeprunox 40 mg,−6.5 (11.7)
same,"AKATHISIA, %",[3]; BX 20 mg,3%
same,"CONVULSION, %",[3]; BX 20 mg,1%
same,"DIZZINESS, %",[3]; BX 20 mg,8%
same,"DYSKINESIA, %",[3]; BX 20 mg,1%
same,"EXTRAPYRAMIDAL DISORDER, %",[3]; BX 20 mg,3%
same,"HEADACHE, %",[3]; BX 20 mg,19%
same,"LOSS OF CONSCIOUSNESS, %",[3]; BX 20 mg,1 (<1%)
same,"MYALGIA, %",[3]; BX 20 mg,1 (<1%)
same,"NECK PAIN, %",[3]; BX 20 mg,1%
same,"NERVOUS SYSTEM DISORDERS, %",[3]; BX 20 mg,38%
same,"PAIN IN EXTREMITY, %",[3]; BX 20 mg,1 (<1%)
same,"SEDATION, %",[3]; BX 20 mg,5%
same,"SINUS HEADACHE, %",[3]; BX 20 mg,1 (<1%)
same,"SOMNOLENCE, %",[3]; BX 20 mg,3%
same,"TARDIVE DYSKINESIA, %",[3]; BX 20 mg,1 (<1%)
same,"TREMOR, %",[3]; BX 20 mg,1%
same,"AKATHISIA, %",[3]; BX 40 mg,3%
same,"CYST, %",[3]; BX 40 mg,1 (<1%)
same,"DIZZINESS, %",[3]; BX 40 mg,10%
same,"DYSKINESIA, %",[3]; BX 40 mg,1%
same,"EXTRAPYRAMIDAL DISORDER, %",[3]; BX 40 mg,1 (<1%)
same,"HEADACHE, %",[3]; BX 40 mg,19%
